Measurements published in patent publication US20080167385A1 (priority 2004, published 2008).
Entries after “also recorded” stand apart in the source; their conditions may differ.

Columns and labels:
CDK4/cyclin D1 [1] = molecular target: T1, CDK4/cyclin D1 (Homo sapiens, UniProt P11802+P24385); assay: CDK4/cyclin D1 kinase assay (in vitro pRb phosphorylation); assay type: biochemical
T1 construct: His6 (N); made in house; host or cells: CDK4: Sf9 insect cells (baculovirus); GST-pRb: E. coli BL21(DE3)
Procedure: For the 96-well format in vitro kinase assay GST-pRb was used immobilized on glutathione-Sepharose beads.
CDK4/cyclin D1 kinase assay: The reaction mixture consisted of 1 μM of CDK4 and cyclin D1, 5 μg GST-pRb, 100 mM ATP and 0.2 μCi ^32P-ATP. The kinase reaction was carried out for 10 min at 30° C., the reaction was stopped with the addition of sample buffer and after heating the sample was resolved on 10% SDS-PAGE. The aouthoradiography images were scanned and quantified using QuickScan software. The IC50 values were determined using GraFit software.

CDK4/cyclin D1 [2] = molecular target: T1, CDK4/cyclin D1; conditions: background; cited from earlier work
PCNA = molecular target: T2, PCNA (Homo sapiens, UniProt P12004); conditions: cited from earlier work
T2 construct: made in house; host or cells: Escherichia coli BL21(DE3), pT7-PCNA

[3] = system: PCNA-dependent DNA replication; conditions: cited from earlier work

T1 sequence (P11802 whole entry): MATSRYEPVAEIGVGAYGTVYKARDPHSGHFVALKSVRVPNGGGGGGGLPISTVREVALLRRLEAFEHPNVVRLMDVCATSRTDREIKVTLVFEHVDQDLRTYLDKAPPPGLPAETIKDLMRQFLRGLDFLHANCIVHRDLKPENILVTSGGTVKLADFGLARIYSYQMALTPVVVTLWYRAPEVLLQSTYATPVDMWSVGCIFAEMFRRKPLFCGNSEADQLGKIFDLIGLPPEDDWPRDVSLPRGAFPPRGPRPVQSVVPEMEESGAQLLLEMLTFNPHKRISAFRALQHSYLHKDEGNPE
T1 sequence (P24385 whole entry): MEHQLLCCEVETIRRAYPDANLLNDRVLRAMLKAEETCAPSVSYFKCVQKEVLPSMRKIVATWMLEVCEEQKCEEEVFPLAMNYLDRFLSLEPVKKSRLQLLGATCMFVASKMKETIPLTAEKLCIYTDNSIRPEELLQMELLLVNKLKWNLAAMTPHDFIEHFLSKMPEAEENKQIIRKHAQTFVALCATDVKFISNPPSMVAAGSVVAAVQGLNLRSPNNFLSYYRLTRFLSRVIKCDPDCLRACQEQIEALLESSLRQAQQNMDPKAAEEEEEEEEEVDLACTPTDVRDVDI
T2 sequence (P12004 whole entry): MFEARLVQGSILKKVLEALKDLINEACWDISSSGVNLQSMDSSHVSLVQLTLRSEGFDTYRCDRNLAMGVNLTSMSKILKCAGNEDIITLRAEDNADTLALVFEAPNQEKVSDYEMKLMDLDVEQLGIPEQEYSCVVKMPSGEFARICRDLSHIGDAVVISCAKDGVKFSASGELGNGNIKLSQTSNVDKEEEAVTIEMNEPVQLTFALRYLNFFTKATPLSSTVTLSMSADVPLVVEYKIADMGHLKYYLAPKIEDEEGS

For “SAVLQKKITDYFHPKK [CM peptide, hybrid containing 12 residues from the C-terminus of Pogo, flanked by 4 residues from DNA ligase I]”, the CDK/cyclin inhibitory activity (CDK4/cyclin D1 [1]) is given as “devoid of CDK/cyclin inhibitory activity; also recorded: does not inhibit CDK function”, the “inhibition of CDK function” value (CDK4/cyclin D1 [2]) is given as “unable to inhibit CDK function” and the “affinity for PCNA (in words)” value (PCNA) is given as “nanomolar affinity; also recorded: affinity very similar to that of the p21(141-160) peptide”. The enthalpy of binding to PCNA (PCNA; isothermal calorimetry) was -9.52 kcal/mol, the “entropic contribution to PCNA binding” value (PCNA; isothermal calorimetry) was 0.61 cal mol^−1 ° C.^−1 and the Kd (PCNA; read-out: Kd of binding to PCNA) was 0.1 µM. The “inhibition of DNA replication in vitro (in words)” value [3] was “potency very similar to that of p21(141-160); also recorded: efficient inhibitor”.

In the case of “p21D149A: site point mutant p21(141-160)D149A (KRRQTSMTAFYHSKRRLIFS; UniProt P38936 141-160, looked up, variant D149A) [reference compound]”, the “Ka of binding to PCNA” value (PCNA; isothermal calorimetry) is given as 7.8×10^5.
